{
  "source": "ChEMBL document CHEMBL1149802",
  "about": "“Chemiluminescent high-throughput microassay applied to imidazo[2,1-b]thiazole derivatives as potential acetylcholinesterase and butyrylcholinesterase inhibitors” (Eur J Med Chem, 2008)",
  "data": [
    {"target": "Acetylcholinesterase (Electrophorus electricus, UniProt O42275)", "sequence (O42275 whole entry)": "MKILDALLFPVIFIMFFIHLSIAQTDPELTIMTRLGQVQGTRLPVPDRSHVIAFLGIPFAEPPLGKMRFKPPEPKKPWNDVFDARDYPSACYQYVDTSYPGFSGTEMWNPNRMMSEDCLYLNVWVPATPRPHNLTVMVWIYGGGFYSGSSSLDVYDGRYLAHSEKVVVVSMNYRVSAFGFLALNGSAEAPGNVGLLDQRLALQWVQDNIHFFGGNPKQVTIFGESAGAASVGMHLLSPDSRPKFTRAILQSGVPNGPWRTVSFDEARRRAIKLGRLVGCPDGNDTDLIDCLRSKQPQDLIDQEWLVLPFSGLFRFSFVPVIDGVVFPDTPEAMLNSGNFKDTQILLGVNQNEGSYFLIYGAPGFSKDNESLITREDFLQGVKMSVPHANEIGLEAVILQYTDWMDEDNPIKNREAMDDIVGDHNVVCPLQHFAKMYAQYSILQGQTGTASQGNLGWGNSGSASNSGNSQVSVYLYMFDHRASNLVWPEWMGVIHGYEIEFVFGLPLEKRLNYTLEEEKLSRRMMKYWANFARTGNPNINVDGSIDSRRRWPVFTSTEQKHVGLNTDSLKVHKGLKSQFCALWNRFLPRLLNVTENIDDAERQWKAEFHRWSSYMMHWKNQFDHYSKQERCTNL", "assay": "Inhibition of electric eel acetylcholine esterase type V-S in presence of acetylcholine substrate by chemiluminescent assay", "units": {"IC50": "µM"}, "values": [
      {"smiles": "CC(=O)N1CCN(/N=C/c2c(C)nc3sccn23)C1=O", "IC50": 35},
      {"smiles": "CC(=O)N1CCN(/N=C/c2c(Cl)nc3sccn23)C1=O", "IC50": 60},
      {"smiles": "O=C(c1ccccc1)N1CCN(/N=C/c2c(Cl)nc3sccn23)C1=O", "IC50": 4.2}
    ]}
  ]
}
